The text below walks through data of US8961680B2, “Solvent formulations” (TBF Environmental Technology Inc., priority 2013, dated 2015).

The conditions of data set [1]: reference solvents; cited from earlier work.
Data set [2] can be described thus: Hansen solubility parameters of blends, single components, MEK and acetone. The conditions noted are these: MEK, acetone, δ^2 = δD^2 + δP^2 + δH^2. From the text:
In some embodiments, a solvent composition according to the present disclosure includes an acetate ester, such as MA, EA, or TBAc, in combination with additional reagents to increase dispersion and decrease hydrogen bonding and/or to decrease the polarity of the composition. […] Accordingly, in some embodiments, a solvent composition according to the present disclosure may be formulated according to Hansen solubility parameters (HSP) (Hansen, 1999) and may have: a dispersion parameter (δD) between about 7.7 and about 8.5; a polarity parameter (δP) between about 4 and about 5.2; and a hydrogen bonding parameter (δH) between about 3.0 and about 3.6. Such parameters result in a Hansen Solubility Parameter (δ MPa) of about 9.0 to about 10.4, where δ^2=δD^2+δP^2+δH^2.
In alternative embodiments, a solvent composition according to the present disclosure may have: a dispersion parameter (δD) between about 7.5 and about 8; a polarity parameter (δP) between about 3 and about 4; and a hydrogen bonding parameter (δH) between about 3.2 and about 4. Such parameters result in a Hansen Solubility Parameter (δ MPa) of about 8.68 to about 9.79, where δ^2=δD^2+δP^2+δH^2. In some embodiments, a solvent composition according to the present disclosure includes a composition with HSP values similar to those of acetone. […]

The conditions of data set [3]: single components, MEK, acetone; cited from earlier work.
The conditions of data set [4]: cited from earlier work.
The conditions of data set [5]: published value; cited from earlier work.
Data set [6] is described as follows: Evaporation rate relative to n-butyl acetate (=1). It is filed as physicochemical. Particulars: Example 2. From the text: Evaporation rates can be expressed relative to the evaporation of n-butyl acetate (=1), as a standard.

Turning to `CC(C)=O` [Acetone, acetone, reference compound], the flash point in data set [1] was −20 °C. For the same molecule, the “δ (MPa)” value in data set [2] is recorded as 9.929 MPa. In data set [3], the “δD (dispersion)” value is reported as 7.7, the “δH (hydrogen bonding)” value is reported as 3.5 and the “δP (polarity)” value is 5.2.

Take `COC(C)=O` [Methyl acetate, methyl acetate]: the flash point in data set [1] is −4 °C. Further, the solubility in water in data set [4] (room temperature) was 25%. In addition, in data set [4] (strong aqueous bases or aqueous acids), the stability entry is reported as “not stable”. In data set [3], the “δD (dispersion)” value is given as 7.58, the “δH (hydrogen bonding)” value is listed as 3.72 and the “δP (polarity)” value is listed as 3.52.

Take `CCOC(C)=O` [Ethyl acetate, ethyl acetate]: in data set [3], the “δD (dispersion)” value was 7.7, the “δH (hydrogen bonding)” value is given as 3.5 and the “δP (polarity)” value is given as 2.3.

For the molecule `FC(F)(F)c1ccc(Cl)cc1` [PCBTF, parachlorobenzotrifluoride], in data set [3], the “δD (dispersion)” value is on record as 8.8, the “δH (hydrogen bonding)” value is recorded as 1.9 and the “δP (polarity)” value is recorded as 2.9.

On to `CCC(C)=O` [MEK, methyl ethyl ketone, reference compound], for which the “published MEK ER” value in data set [5] is listed as 4.0. For the same molecule, in data set [1], the flash point is −9 °C. In data set [3], the “δD (dispersion)” value was 7.82, the “δH (hydrogen bonding)” value was 2.49 and the “δP (polarity)” value is given as 4.4. The evaporation rate in data set [6] turned out to be 3.8.

For the molecule `COC(=O)OC` [DMC, dimethyl carbonate], in data set [3], the “δD (dispersion)” value was 8.5, the “δH (hydrogen bonding)” value is on record as 1.9 and the “δP (polarity)” value is 4.7.

As for `CC(=O)OC(C)(C)C` [TBA, tert-butyl acetate], in data set [2], the “δ (MPa)” value was 7.765 MPa. For the same molecule, in data set [3], the “δD (dispersion)” value was 7, the “δH (hydrogen bonding)” value was 2.9 and the “δP (polarity)” value is given as 1.7.

`CC1COC(=O)O1` (stereo not drawn) [PC, propylene carbonate]: in data set [3], the “δD (dispersion)” value is reported as 9.8, the “δH (hydrogen bonding)” value is listed as 2 and the “δP (polarity)” value is 8.8.
